Laboratory results: publication PMC4510645, “Discovery of intramolecular trans-sialidases in human gut microbiota suggests novel mechanisms of mucosal adaptation” (Nature Communications, 2015)

Key:
[1] = tested on: AkmNan0625 and AkmNan1835; assay: Specificity against sialyl-oligosaccharides, HPAEC-PAD (control sialidases); assay type: biochemical, Akkermansia muciniphila; parameters: key to Activity AkmNan0625 and AkmNan1835: +: Activity was defined as disappearance of the substrate peak and appearance of a lower-molecular weight peak, which could correspond to the desialylated substrate; settings: 37 °C; for activity of AkmNan0625 and AkmNan1835 on substrate (in words): pH 6.5; for Activity AkmNan0625 and AkmNan1835: substrate 1 mM, 1 nM enzyme, pH 6.5, overnight
Experimental: (§1) Figure 2 Specificity of RgNanH towards sialylated oligosaccharides. The enzymes were incubated with sialylated substrates at 37 °C, pH 6.5, overnight and the reaction products were analysed by HPAEC-PAD. Control reactions without enzyme were also performed. The injection peak is marked (inj). Glycerol (gly) was also present in AkmNan0625. (a) Standards (Lac, Neu5Ac, 3′SL and 6′SL), (b) 3′SL, (c) 6′SL and (d) 3'-α-sialyl-N-acetyllactosamine (3′SLacNAc). AkmNan1835 has a similar profile to […].
All chemicals were obtained from Sigma (St Louis, USA) unless otherwise stated. The A. muciniphila sialidases, termed here AkmNan0625 and AkmNan1835, were obtained by His-Tag overexpression of their genes (Amuc_0625 and Amuc_1835, respectively)[56] in E. coli BL21(DE3) and subsequent purification to homogeneity by immobilized metal affinity chromatography as described below. The sialylated oligosaccharides and OC were obtained from Carbosynth (Berks, UK).
(§2) The purified enzymes were incubated with the substrate in buffer made from 20 mM Na2HPO4 and 20 mM NaH2PO4 adjusted to pH 6.5 containing 1 mg ml^−1 BSA at 37 °C unless otherwise stated. For 4MU-Neu5Ac, the progression of the reaction was monitored by the release of the MU using a 96-well plate reader (BMG Labtech, Ortenberg, Germany) using fluorescence with an excitation at 340 nm and an emission at 420 nm. For determining the optimal temperature, the assay was carried out in 20 mM PBS at pH 7.4. For determining the optimal pH, the assay was carried out at 37 °C using buffer made from 20 mM Na2HPO4 and 20 mM NaH2PO4 in varying proportions to obtain the desired pH. PNP release from PNP-Neu5Ac was monitored in a similar way measuring absorbance at 405 nm every 60 s. For 3′SL, the reaction was monitored by HPAEC-PAD. An aliquot of the reaction was removed from the main reaction volume at the reaction stopped by boiling for 20 min, the enzyme was then removed by centrifugation at 17,000g for 10 min and filtration with a 0.2-μm filter (Millipore, Billerica, USA). The sugars were separated by HPAEC with an isocratic gradient of 100 mM NaOH and 100 mM NaAC at 1 ml min^−1 on a CarboPac PA1 protected with a guard column and detected using PAD on a Dionex ICS5000 system (Thermo Scientific, Hemel Hempstead, UK). The column was cleaned with 10 ml of 500 mM NaOH and 500 mM NaAc, and the column was re-equilibrated with 100 mM NaOH and 100 mM NaAc. An internal standard of fucose was used to quantify the results.
(§3) For specificity tests against sialylated oligosaccharides (1 mM) and glycoproteins (1 mg ml^−1), 1 nM of enzyme was incubated with the substrate at 37 °C, pH 6.5, overnight.

R. gnavus ATCC 29149 = tested on: R. gnavus ATCC 29149; parameters: method as in PMID 24204617; settings: R. gnavus ATCC 29149; cited from earlier work
RgNanH [2] = target: T1, RgNanH (Mediterraneibacter gnavus (Ruminococcus gnavus), UniProt A7B557); assay: Specificity against sialyl-oligosaccharides, HPAEC-PAD; assay type: biochemical, Ruminococcus gnavus ATCC 29149; parameters: key to Activity RgNanH: +: Activity was defined as disappearance of the substrate peak and appearance of a lower-molecular weight peak, which could correspond to the desialylated substrate; settings: 37 °C
T1 sequence (A7B557 26-723): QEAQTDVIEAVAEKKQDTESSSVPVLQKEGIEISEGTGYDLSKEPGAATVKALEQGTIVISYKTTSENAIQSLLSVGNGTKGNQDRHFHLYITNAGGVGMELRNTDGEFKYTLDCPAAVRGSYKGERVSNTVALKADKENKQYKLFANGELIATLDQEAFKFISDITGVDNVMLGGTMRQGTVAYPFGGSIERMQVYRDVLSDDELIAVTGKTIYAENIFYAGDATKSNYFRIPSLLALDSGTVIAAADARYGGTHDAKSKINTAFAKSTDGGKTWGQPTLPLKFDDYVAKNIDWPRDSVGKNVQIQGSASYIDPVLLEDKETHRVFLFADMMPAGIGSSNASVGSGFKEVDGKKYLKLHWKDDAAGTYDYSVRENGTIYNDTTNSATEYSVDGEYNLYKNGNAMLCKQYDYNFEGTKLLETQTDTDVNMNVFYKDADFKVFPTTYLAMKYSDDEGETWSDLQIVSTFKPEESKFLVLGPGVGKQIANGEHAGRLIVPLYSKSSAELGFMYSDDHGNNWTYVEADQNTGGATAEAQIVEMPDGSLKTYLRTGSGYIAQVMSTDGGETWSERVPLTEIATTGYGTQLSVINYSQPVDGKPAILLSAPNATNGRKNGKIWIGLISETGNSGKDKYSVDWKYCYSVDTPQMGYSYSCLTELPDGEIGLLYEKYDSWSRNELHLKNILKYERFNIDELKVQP
Experimental: as §1, §2, §3

[3] = Spontaneous interconversion of 2,7-anhydro-Neu5Ac and Neu5Ac by 1H NMR; assay type: physicochemical; settings: up to 24 h at 37 °C
Experimental: The products of the reaction were thus further monitored by ^1H nuclear magnetic resonance (NMR). […] (Fig. 3). These peaks are characteristic of 2,7-anhydro-α-N-acetylneuraminic acid (2,7-anhydro-Neu5Ac) and arise from the protons in positions 6 and 7 (Fig. 3a). Peaks corresponding to 2,7-anhydro-Neu5Ac were observed when RgNanH was incubated in presence of 4MU-Neu5Ac (Fig. 3a) or 3′SL (Fig. 3b). […] The signals of 2,7-anhydro-Neu5Ac and their chemical shifts are shown in Supplementary Table 1. This product was absent in control experiments using A. muciniphila sialidases (AkmNan0625 and AkmNan1835) or in absence of enzyme, confirming the specificity of the enzymatic reaction (Supplementary Fig. 5).
Extracts (400 μl) were mixed with 200 μl of D2O and 20 μl of a solution of D2O containing 1 mM of TSP (sodium 3-(trimethylsilyl)-propionate-d4). Samples (500 μl) were transferred into a 5-mm NMR tube for spectral acquisition. The ^1H NMR spectra were recorded at 600 MHz on a Bruker Avance spectrometer (Bruker BioSpin GmbH, Rheinstetten, Germany) running Topspin 2.0 software, and were fitted with a cryoprobe and a 60-slot autosampler. Each ^1H NMR spectrum was acquired with 128 scans, a spectral width of 8,012.8 Hz, an acquisition time of 2.04 s and a relaxation delay of 2.0 s. […]

RgNanH [4] = target: T1, RgNanH; assay: Kinetic parameters of RgNanH with sialylated substrates; assay type: biochemical, Ruminococcus gnavus ATCC 29149; settings: pH 6.5, 37 °C
Experimental: as §2
For 4MU-Neu5Ac and 3′SL, the rate of hydrolysis without enzyme was not significant, thus raw data were used. However, for pNP-Neu5Ac, the rate of hydrolysis without enzyme was significant, thus the rate with enzyme was corrected by the subtraction of the rate without enzyme at each concentration of substrate. For 3′SL, the rate of reaction was calculated by plotting the amount of substrate remaining over the course of >50 % of the reaction using the following equation[58]: […]
Where k is kcat/KM × enzyme concentration, t is time, [S0] and [St] are substrate concentrations at time 0 and t, respectively.
Kinetic data were obtained from at least duplicate (usually triplicate) experiments, and the kinetic parameters were calculated by fitting the initial raw data to the Michaelis–Menten equation using a nonlinear regression analysis programme (Prism 6, GraphPad, San Diego, USA), and error bars (s.e.m.) are shown.

RgNanH [5] = target: T1, RgNanH; assay: Inhibition of RgNanH activity against 4MU-Neu5Ac by neuraminidase inhibitors; assay type: biochemical, Ruminococcus gnavus ATCC 29149; settings: 4MU-Neu5Ac 0.51 mM, 1 nM enzyme; Neu5Ac 0-0.3 mM, Lac 0-1.5 mM; pH 6.5, 37 °C
Experimental: Figure 1 Kinetic analysis of the hydrolysis of sialylated substrates by RgNanH in presence or absence of inhibitors. Substrate (a) 4MU-Neu5Ac or (b) PNP-Neu5Ac was incubated with RgNanH ([…] and 0.43 nM, respectively) at 37 °C, pH 6.5 and the release of product measured using a plate reader. (c) Inhibition of RgNanH (1.00 nM) incubated with 4MU-Neu5Ac (0.51 mM) by zanamivir (●), Neu5Ac2en (▪), siastatin B (▴) and OC (♦), the rates are normalized to a % of the uninhibited rate. [I] is the inhibitor concentration. (d) 3′SL was incubated with RgNanH (2.25 nM) and the release of product measured by HPAEC-PAD. Experiments were done at least in duplicate (usually triplicate) and the error bars show the s.e.m.
as §2, with “results. […]” for “results.”

## Neu5Ac-α-2-6-Gal-β1-4-Glc [6′SL]
[1]
  activity of AkmNan0625 and AkmNan1835 on substrate (in words): active
  Activity AkmNan0625 and AkmNan1835: +
R. gnavus ATCC 29149
  ability of the bacteria to grow on the substrate: not
RgNanH [2]; pH 6.5
  enzymatic activity of RgNanH on substrate (in words): no enzymatic activity

## CC(=O)N[C@H]1[C@H]2O[C@@](C(=O)O)(C[C@@H]1O)O[C@@H]2[C@H](O)CO [2,7-anhydro-Neu5Ac, 2,7-anhydro-α-N-acetylneuraminic acid]
[3]
  spontaneous conversion between 2,7-anhydro-Neu5Ac and Neu5Ac: no spontaneous conversion

## Neu5Ac-α-2-3-Gal-β-1-4-Glc [3′SL]
[1]
  activity of AkmNan0625 and AkmNan1835 on substrate (in words): active
  Activity AkmNan0625 and AkmNan1835: +
R. gnavus ATCC 29149
  ability of the bacteria to grow on the substrate: grow
RgNanH [4]; substrate inhibition, s.e.m.
  Ki: 760 ± 230 µM
RgNanH [4]; substrate of RgNanH
  kcat: 0.4283 s⁻¹
RgNanH [4]; substrate of RgNanH, s.e.m.
  KM: below detection limit
  Km: < 100 µM
  Vmax: 0.0566 ± 0.0057 µM/min
RgNanH [2]; substrate 1 mM, 1 nM enzyme, pH 6.5, overnight
  Activity RgNanH: +

## OC[C@H]1O[C@@H](O[C@H]2[C@H](O)[C@@H](O)C(O)O[C@@H]2CO)[C@H](O)[C@@H](O)[C@H]1O (mixture of isomers) [lactose]
R. gnavus ATCC 29149
  ability of the bacteria to grow on the substrate: not
RgNanH [5]
  Inhibition of RgNanH: not inhibited
